In ChEMBL document CHEMBL4396971, “Discovery of potent and orally bioavailable indazole-based glucagon receptor antagonists for the treatment of type 2 diabetes” (Bioorg Med Chem Lett, 2019):
Activity calls are given as the source filed them. The rule behind the calls is not given here.

How the values were obtained:
Glucagon receptor [1] = biological target: T1, Glucagon receptor (Homo sapiens, UniProt P47871); experiment: Potency index, ratio of Ki of 3-[[4-[(1R)-1-[5-[2-Chloro4-(trifluoromethyl)phenyl]indazol-1-yl]-3-methyl-butyl]benzoyl]amino]propanoic acid to Ki of compound for human full length GCGR transfected in HEK293 cells assessed as reduction in glucagon-induced cAMP response by LANCE TR-FRET assay; assay type: functional, cell-based
T1 sequence (P47871 whole entry): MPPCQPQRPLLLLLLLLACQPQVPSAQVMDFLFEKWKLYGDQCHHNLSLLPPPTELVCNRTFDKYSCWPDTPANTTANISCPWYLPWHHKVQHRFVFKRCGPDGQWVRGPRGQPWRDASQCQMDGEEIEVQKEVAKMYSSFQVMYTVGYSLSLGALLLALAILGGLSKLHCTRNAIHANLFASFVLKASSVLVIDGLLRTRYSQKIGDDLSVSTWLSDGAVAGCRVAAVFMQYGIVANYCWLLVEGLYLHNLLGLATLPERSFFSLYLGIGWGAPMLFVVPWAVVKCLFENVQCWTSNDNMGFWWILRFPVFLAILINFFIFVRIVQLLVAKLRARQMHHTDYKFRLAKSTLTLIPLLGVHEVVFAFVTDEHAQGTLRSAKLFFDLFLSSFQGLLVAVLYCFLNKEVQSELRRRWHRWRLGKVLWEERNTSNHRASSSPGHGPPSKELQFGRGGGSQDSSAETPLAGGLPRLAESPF

[2] = Stability in dog liver microsomes assessed as parent compound remaining at 1 uM incubated for 10 mins; assay type: ADME, Canis lupus familiaris, Microsome; settings: for remaining at 10 min, 1 µM: liver microsomes, read-out: Stability
[3] = Stability in mouse liver microsomes assessed as parent compound remaining at 1 uM incubated for 10 mins; assay type: ADME, Microsome; settings: for remaining at 10 min, 1 µM: liver microsomes, read-out: Stability
[4] = Stability in human liver microsomes assessed as parent compound remaining at 1 uM incubated for 10 mins; assay type: ADME, Microsome; settings: read-out: Stability
[5] = Stability in rat liver microsomes assessed as parent compound remaining at 1 uM incubated for 10 mins; assay type: ADME, Microsome; settings: read-out: Stability
Cytochrome P450 2D6 = Cytochrome P450 2D6 (Homo sapiens, UniProt P10635); experiment: Inhibition of CYP2D6 (unknown origin) using dextromethorphan as substrate; assay type: ADME
Cytochrome P450 2D6, sequence (P10635 whole entry): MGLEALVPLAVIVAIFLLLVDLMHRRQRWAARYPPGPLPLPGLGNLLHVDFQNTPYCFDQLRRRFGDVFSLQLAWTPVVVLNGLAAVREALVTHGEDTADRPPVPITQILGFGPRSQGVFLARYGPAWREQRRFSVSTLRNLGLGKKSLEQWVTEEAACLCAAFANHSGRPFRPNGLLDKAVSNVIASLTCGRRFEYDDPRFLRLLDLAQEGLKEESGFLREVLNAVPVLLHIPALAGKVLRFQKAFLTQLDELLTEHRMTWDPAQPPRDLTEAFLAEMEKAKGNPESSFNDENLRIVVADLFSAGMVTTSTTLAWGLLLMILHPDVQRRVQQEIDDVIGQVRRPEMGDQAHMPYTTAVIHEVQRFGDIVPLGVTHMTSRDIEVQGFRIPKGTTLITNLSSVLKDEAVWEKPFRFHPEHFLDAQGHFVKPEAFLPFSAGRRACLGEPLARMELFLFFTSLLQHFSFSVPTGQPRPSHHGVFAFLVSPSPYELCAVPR

Canis familiaris [6] = experiment: Antidiabetic activity in Beagle dog assessed as reduction in blood glucose AUC at 10 mg/kg, po administered via gavage as single dose 90 mins prior to glucagon challenge by glucometer analysis; assay type: functional, organism-based; settings: Canis lupus familiaris
[7] = Half life in C57 mouse at 20 mg/kg, po; assay type: ADME, organism-based; settings: in vivo
Cytochrome P450 2C19 = Cytochrome P450 2C19 (Homo sapiens, UniProt P33261); experiment: Inhibition of CYP2C19 (unknown origin) using S-Mephenytoin as substrate; assay type: ADME
Cytochrome P450 2C19, sequence (P33261 whole entry): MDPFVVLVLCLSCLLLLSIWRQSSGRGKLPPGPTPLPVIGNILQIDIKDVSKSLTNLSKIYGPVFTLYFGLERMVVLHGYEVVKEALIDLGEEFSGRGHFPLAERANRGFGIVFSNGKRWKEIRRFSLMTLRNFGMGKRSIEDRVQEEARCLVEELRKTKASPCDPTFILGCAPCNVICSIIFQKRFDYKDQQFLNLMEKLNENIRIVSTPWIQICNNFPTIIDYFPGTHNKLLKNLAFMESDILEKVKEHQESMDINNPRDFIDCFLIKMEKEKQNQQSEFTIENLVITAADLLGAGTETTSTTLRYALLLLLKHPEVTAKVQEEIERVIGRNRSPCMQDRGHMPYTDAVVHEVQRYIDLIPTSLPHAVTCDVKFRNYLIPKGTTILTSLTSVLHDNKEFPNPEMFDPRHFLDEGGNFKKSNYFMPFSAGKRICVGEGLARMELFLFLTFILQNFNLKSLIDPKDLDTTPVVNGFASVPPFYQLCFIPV

[8] = Antagonist activity at GCGR in dog hepatocytes assessed as inhibition of glucagon-induced cAMP by LANCE TR-FRET assay; assay type: cell-based, Canis lupus familiaris
Glucagon receptor [9] = biological target: T1, Glucagon receptor; experiment: Inhibition of human full length GCGR transfected in HEK293 cells assessed as reduction in glucagon-induced cAMP response by LANCE TR-FRET assay; assay type: functional, cell-based
[10] = Clearance in dog at 2 mg/kg, iv or 10 mg/kg, po; assay type: ADME, organism-based, Canis lupus familiaris; settings: in vivo
[11] = Half life in dog at 2 mg/kg, iv; assay type: ADME, organism-based, Canis lupus familiaris; settings: in vivo
Cytochrome P450 1A2 = biological target: T2, Cytochrome P450 1A2 (Homo sapiens, UniProt P05177); experiment: Inhibition of CYP1A2 (unknown origin) using phenacetin as substrate; assay type: ADME
T2 sequence (P05177 whole entry): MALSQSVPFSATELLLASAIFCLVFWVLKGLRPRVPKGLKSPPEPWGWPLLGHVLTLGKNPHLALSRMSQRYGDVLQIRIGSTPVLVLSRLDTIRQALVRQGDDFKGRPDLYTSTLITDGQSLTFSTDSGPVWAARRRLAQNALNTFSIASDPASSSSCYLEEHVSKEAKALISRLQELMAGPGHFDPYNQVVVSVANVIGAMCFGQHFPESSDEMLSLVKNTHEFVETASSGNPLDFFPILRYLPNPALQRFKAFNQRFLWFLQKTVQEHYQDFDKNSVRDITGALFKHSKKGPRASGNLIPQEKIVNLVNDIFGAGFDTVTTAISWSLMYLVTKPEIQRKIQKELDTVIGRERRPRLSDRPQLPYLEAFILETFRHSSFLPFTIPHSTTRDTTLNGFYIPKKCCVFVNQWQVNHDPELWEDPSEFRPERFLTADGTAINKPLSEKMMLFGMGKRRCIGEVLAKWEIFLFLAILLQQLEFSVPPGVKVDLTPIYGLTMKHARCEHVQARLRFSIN

[12] = Volume of distribution at steady state in C57 mouse at 5 mg/kg, iv or 20 mg/kg, po; assay type: ADME, organism-based; settings: in vivo, read-out: Vdss
[13] = AUClast in Sprague-Dawley rat at 2 mg/kg, iv or 10 mg/kg, po; assay type: ADME, organism-based; settings: in vivo
[14] = AUClast in dog at 2 mg/kg, iv or 10 mg/kg, po; assay type: ADME, organism-based, Canis lupus familiaris; settings: in vivo
[15] = Protein binding in human plasma at 1 uM; assay type: ADME, cell-free; settings: read-out: PPB
Cytochrome P450 3A4 [16] = biological target: T3, Cytochrome P450 3A4 (Homo sapiens, UniProt P08684); experiment: Inhibition of CYP3A4 (unknown origin) using testosterone as substrate; assay type: ADME
T3 sequence (P08684 whole entry): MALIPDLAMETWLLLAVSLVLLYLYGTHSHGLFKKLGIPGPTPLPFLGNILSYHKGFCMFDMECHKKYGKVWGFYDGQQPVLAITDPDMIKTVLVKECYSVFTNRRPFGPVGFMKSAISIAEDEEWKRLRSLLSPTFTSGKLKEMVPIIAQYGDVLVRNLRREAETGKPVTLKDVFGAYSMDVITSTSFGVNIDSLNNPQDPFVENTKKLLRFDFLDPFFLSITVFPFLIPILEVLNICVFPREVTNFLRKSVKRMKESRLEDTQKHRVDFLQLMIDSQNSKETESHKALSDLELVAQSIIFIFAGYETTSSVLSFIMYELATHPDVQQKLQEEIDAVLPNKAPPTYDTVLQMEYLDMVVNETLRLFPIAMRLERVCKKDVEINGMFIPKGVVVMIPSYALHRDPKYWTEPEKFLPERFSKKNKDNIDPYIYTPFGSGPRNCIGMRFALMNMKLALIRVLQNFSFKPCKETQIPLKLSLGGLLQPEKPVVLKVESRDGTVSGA

[17] = Half life in Sprague-Dawley rat at 2 mg/kg, iv; assay type: ADME, organism-based; settings: in vivo
Cytochrome P450 3A4 [18] = biological target: T3, Cytochrome P450 3A4; experiment: Inhibition of CYP3A4 (unknown origin) using midazolam as substrate; assay type: ADME
[19] = Cmax in dog at 2 mg/kg, iv or 10 mg/kg, po; assay type: ADME, organism-based, Canis lupus familiaris; settings: in vivo
[20] = Volume of distribution at steady state in Sprague-Dawley rat at 2 mg/kg, iv or 10 mg/kg, po; assay type: ADME, organism-based; settings: in vivo, read-out: Vdss
[21] = Oral bioavailability in dog at 10 mg/kg; assay type: ADME, organism-based, Canis lupus familiaris; settings: in vivo
[22] = Clearance in C57 mouse at 5 mg/kg, iv or 20 mg/kg, po; assay type: ADME, organism-based; settings: in vivo
[23] = Clearance in Sprague-Dawley rat at 2 mg/kg, iv or 10 mg/kg, po; assay type: ADME, organism-based; settings: in vivo
Cytochrome P450 2C9 = Cytochrome P450 2C9 (Homo sapiens, UniProt P11712); experiment: Inhibition of CYP2C9 (unknown origin) using tolbutamide as substrate; assay type: ADME
Cytochrome P450 2C9, sequence (P11712 whole entry): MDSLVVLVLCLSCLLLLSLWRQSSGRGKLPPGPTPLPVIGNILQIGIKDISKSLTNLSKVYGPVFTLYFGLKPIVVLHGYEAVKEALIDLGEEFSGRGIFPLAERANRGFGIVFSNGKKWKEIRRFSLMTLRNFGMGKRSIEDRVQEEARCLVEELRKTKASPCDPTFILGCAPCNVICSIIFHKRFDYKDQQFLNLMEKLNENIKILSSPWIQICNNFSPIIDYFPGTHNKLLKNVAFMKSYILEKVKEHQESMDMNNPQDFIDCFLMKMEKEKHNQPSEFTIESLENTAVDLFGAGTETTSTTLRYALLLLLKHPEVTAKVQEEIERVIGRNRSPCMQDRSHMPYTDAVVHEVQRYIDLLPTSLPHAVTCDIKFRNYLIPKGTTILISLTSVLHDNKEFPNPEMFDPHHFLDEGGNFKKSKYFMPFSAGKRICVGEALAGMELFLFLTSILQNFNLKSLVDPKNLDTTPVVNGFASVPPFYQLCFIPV

Canis familiaris [24] = experiment: Antidiabetic activity in Beagle dog assessed as reduction in blood glucose level at 10 mg/kg, po administered via gavage as single dose 90 mins prior to glucagon challenge measured up to 60 mins post glucagon challenge by glucometer analysis; assay type: functional, organism-based; settings: Canis lupus familiaris
[25] = AUClast in C57 mouse at 5 mg/kg, iv or 20 mg/kg, po; assay type: ADME, organism-based; settings: in vivo
[26] = Half life in dog at 10 mg/kg, po; assay type: ADME, organism-based, Canis lupus familiaris; settings: in vivo
[27] = Oral bioavailability in C57 mouse at 20 mg/kg; assay type: ADME, organism-based; settings: in vivo
[28] = Cmax in Sprague-Dawley rat at 2 mg/kg, iv or 10 mg/kg, po; assay type: ADME, organism-based; settings: in vivo
[29] = Half life in Sprague-Dawley rat at 10 mg/kg, po; assay type: ADME, organism-based; settings: in vivo
[30] = Oral bioavailability in Sprague-Dawley rat at 10 mg/kg; assay type: ADME, organism-based; settings: in vivo
[31] = Cmax in C57 mouse at 5 mg/kg, iv or 20 mg/kg, po; assay type: ADME, organism-based; settings: in vivo
[32] = Half life in C57 mouse at 5 mg/kg, iv; assay type: ADME, organism-based; settings: in vivo
[33] = Volume of distribution at steady state in dog at 2 mg/kg, iv or 10 mg/kg, po; assay type: ADME, organism-based, Canis lupus familiaris; settings: in vivo, read-out: Vdss

Structure (SMILES): CC(C)C[C@@H](c1ccc(C(=O)NCCC(=O)O)cc1)n1ncc2cc(-c3ccc(C(F)(F)F)cc3Cl)ccc21
- Ratio Ki (Glucagon receptor [1]): 15
- Stability ([2]; microsomes, 10 min, 1 µM): 121%
- remaining at 10 min, 1 µM [3]: 107%
- remaining at 10 min, 1 µM [4]: 59%
- remaining at 10 min, 1 µM [5]: 81%

Structure (SMILES): Cc1c(-c2ccc(C(F)(F)F)cc2Cl)ccc2c1cnn2[C@@H](CC(C)C)c1ccc(C(=O)NCCC(=O)O)cc1
- remaining at 10 min, 1 µM [2]: 31%
- Stability ([3]; microsomes, 10 min, 1 µM): 121%
- remaining at 10 min, 1 µM [4]: 89%
- remaining at 10 min, 1 µM [5]: 87%

Structure (SMILES): Cc1c(-c2ccc(C(F)(F)F)cc2Cl)ccc2nn([C@@H](CC(C)C)c3ccc(C(=O)NCCC(=O)O)cc3)cc12
- IC50 (Cytochrome P450 2D6): > 10000 nM
- inhibition (Canis familiaris [6]): Active
- half-life [7]: 3.1 h
- IC50 (Cytochrome P450 2C19): > 10000 nM
- Ki [8]: 90 nM
- remaining at 10 min, 1 µM [2]: 75%
- Ki (Glucagon receptor [9]): 23 nM
- clearance [10]: 0.42 mL/min/kg
- half-life [11]: 5.5 h
- IC50 (Cytochrome P450 1A2): > 10000 nM
- remaining at 10 min, 1 µM [3]: 97%
- Vd [12]: 2.24 L/kg
- AUC(0-t) [13]: 1.4 µM·h
- AUC(0-t) [14]: 248 µM·h
- fraction unbound at 1 µM [15]: 0.0001
- IC50 (Cytochrome P450 3A4 [16]): > 10000 nM
- half-life [17]: 1.9 h
- IC50 (Cytochrome P450 3A4 [18]): > 10000 nM
- Cmax [19]: 21.9 µM
- Vd [20]: 2.46 L/kg
- bioavailability [21]: 35.7%
- clearance [22]: 10.2 mL/min/kg
- remaining at 10 min, 1 µM [4]: 118%
- clearance [23]: 26.5 mL/min/kg
- remaining at 10 min, 1 µM [5]: 107%
- IC50 (Cytochrome P450 2C9): > 10000 nM
- inhibition (Canis familiaris [24]): Active
- AUC(0-t) [25]: 44.9 µM·h
- half-life [26]: 7.3 h
- bioavailability [27]: 78.6%
- Cmax [28]: 0.2 µM
- half-life [29]: 7.7 h
- bioavailability [30]: 13.2%
- Cmax [31]: 7.6 µM
- half-life [32]: 2.8 h
- Vd [33]: 0.17 L/kg

Structure (SMILES): CC(C)C[C@H](c1ccc(C(=O)NCCC(=O)O)cc1)n1ncc2cc(-c3ccc(C(F)(F)F)cc3)ccc21
- Ki (Glucagon receptor [9]): 96 nM

Structure (SMILES): COc1c(-c2ccc(C(F)(F)F)cc2Cl)ccc2nn([C@H](CC(C)C)c3ccc(C(=O)NCCC(=O)O)cc3)cc12
- remaining at 10 min, 1 µM [2]: 79%
- remaining at 10 min, 1 µM [3]: 76%
- remaining at 10 min, 1 µM [4]: 116%
- remaining at 10 min, 1 µM [5]: 100%

Structure (SMILES): CC(C)CC(c1ccc(C(=O)NCCC(=O)O)cc1)n1ncc2cc(-c3ccc(C(F)(F)F)cc3)ccc21 (racemic)
- Ki (Glucagon receptor [9]): 125 nM

Structure (SMILES): Cc1cc(C(F)(F)F)ccc1-c1ccc2nn([C@@H](CC(C)C)c3ccc(C(=O)NCCC(=O)O)cc3)cc2c1C
- remaining at 10 min, 1 µM [2]: 64%
- remaining at 10 min, 1 µM [3]: 50%
- remaining at 10 min, 1 µM [4]: 110%
- remaining at 10 min, 1 µM [5]: 107%
